# From PubChem BioAssay (NCI)
#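 Five concentrations, 48 hours, 96-well plates. GI50 is the concentration that inhibits growth by half. TGI marks complete inhibition of growth.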
# Assays:
# Assay in all cases: NCI tumour cell line growth inhibition, 48 h
# [1] = test system: CAKI-1 renal
# [2] = test system: SK-MEL-2 melanoma
# [3] = test system: RXF 393 renal
# [4] = test system: HT29 colon
# [5] = test system: DU-145 prostate
# [6] = test system: A498 renal
# [7] = test system: M14 melanoma
# [8] = test system: SK-OV-3 ovarian
# [9] = test system: OVCAR-5 ovarian
# [10] = test system: NCI-H23 lung
# [11] = test system: HCC-2998 colon
# [12] = test system: 786-0 renal
# [13] = test system: PC-3 prostate
# [14] = test system: ACHN renal
# [15] = test system: MDA-MB-231 breast
# [16] = test system: SN12C renal
# [17] = test system: RPMI-8226 leukemia
# [18] = test system: SW-620 colon
# [19] = test system: KM12 colon
# [20] = test system: IGROV1 ovarian
# [21] = test system: CCRF-CEM leukemia
# [22] = test system: NCI-H226 lung
# [23] = test system: EKVX NSCLC
# [24] = test system: SF-539 CNS
# [25] = test system: HOP-62 NSCLC
# [26] = test system: MCF7 breast
# [27] = test system: HS 578T breast
# [28] = test system: MDA-MB-435
# [29] = test system: SNB-75 CNS
# [30] = test system: OVCAR-8 ovarian
# [31] = test system: NCI-H522 lung
# [32] = test system: U251 CNS
# [33] = test system: HCT-116 colon
# [34] = test system: UO-31 renal
# [35] = test system: MOLT-4 leukemia
# [36] = test system: SF-268 CNS
# [37] = test system: K-562 leukemia
# [38] = test system: HL-60(TB) leukemia
# [39] = test system: SR leukemia
# [40] = test system: SNB-19 CNS
# [41] = test system: OVCAR-4 ovarian
# [42] = test system: A549 NSCLC
# [43] = test system: OVCAR-3 ovarian
# [44] = test system: TK-10 renal
# [45] = test system: T-47D breast
# [46] = test system: SK-MEL-28 melanoma
# [47] = test system: UACC-257 melanoma
# [48] = test system: BT-549 breast
# [49] = test system: NCI-H460 lung
# [50] = test system: COLO 205 colon
# [51] = test system: NCI/ADR-RES ovarian
# [52] = test system: SK-MEL-5 melanoma
# [53] = test system: HOP-92 NSCLC
# [54] = test system: HCT-15 colon
# [55] = test system: UACC-62 melanoma
# [56] = test system: LOX IMVI melanoma
# [57] = test system: SF-295 CNS
# [58] = test system: MALME-3M melanoma
compound,measurement,setting,value
Clc1ccc(N/N=C/c2ccccn2)nc1,GI50,[1],0.341 µM
same,TGI,[1],> 22.7 µM
same,GI50,[2],0.675 µM
same,TGI,[2],> 100 µM
same,GI50,[3],0.492 µM
same,TGI,[3],15.7 µM
same,GI50,[4],0.574 µM
same,TGI,[4],> 100 µM
same,GI50,[5],0.445 µM
same,TGI,[5],> 100 µM
same,GI50,[6],0.439 µM
same,TGI,[6],5.9 µM
same,GI50,[7],0.375 µM
same,GI50,[8],0.508 µM
same,TGI,[8],> 100 µM
same,GI50,[9],0.433 µM
same,TGI,[9],> 94.3 µM
same,GI50,[10],0.579 µM
same,TGI,[10],> 100 µM
same,GI50,[11],0.422 µM
same,TGI,[11],> 100 µM
same,GI50,[12],0.339 µM
same,TGI,[12],> 100 µM
same,GI50,[13],0.578 µM
same,TGI,[13],> 100 µM
same,GI50,[14],0.379 µM
same,TGI,[14],> 100 µM
same,GI50,[15],0.463 µM
same,TGI,[15],> 100 µM
same,GI50,[16],0.469 µM
same,TGI,[16],> 100 µM
same,GI50,[17],0.462 µM
same,TGI,[17],18.7 µM
same,GI50,[18],0.468 µM
same,TGI,[18],> 100 µM
same,GI50,[19],0.395 µM
same,TGI,[19],> 54.7 µM
same,GI50,[20],0.441 µM
same,TGI,[20],> 100 µM
same,GI50,[21],0.332 µM
same,TGI,[21],> 100 µM
same,GI50,[22],0.401 µM
same,TGI,[22],> 100 µM
same,GI50,[23],0.352 µM
same,TGI,[23],> 100 µM
same,GI50,[24],0.329 µM
same,TGI,[24],2.46 µM
same,GI50,[25],0.421 µM
same,TGI,[25],> 80.3 µM
same,GI50,[26],0.338 µM
same,TGI,[26],> 100 µM
same,GI50,[27],3.39 µM
same,TGI,[27],> 100 µM
same,GI50,[28],0.56 µM
same,TGI,[28],> 100 µM
same,GI50,[29],1.74 µM
same,TGI,[29],> 45.8 µM
same,GI50,[30],0.425 µM
same,TGI,[30],> 100 µM
same,GI50,[31],0.323 µM
same,TGI,[31],37.4 µM
same,GI50,[32],0.459 µM
same,TGI,[32],> 100 µM
same,GI50,[33],0.305 µM
same,TGI,[33],> 100 µM
same,GI50,[34],0.303 µM
same,TGI,[34],1.57 µM
same,GI50,[35],0.339 µM
same,TGI,[35],> 50.7 µM
same,GI50,[36],0.365 µM
same,TGI,[36],> 100 µM
same,GI50,[37],0.383 µM
same,TGI,[37],> 100 µM
same,GI50,[38],0.318 µM
same,TGI,[38],1.31 µM
same,GI50,[39],0.339 µM
same,TGI,[39],> 52.8 µM
same,GI50,[40],0.674 µM
same,TGI,[40],> 100 µM
same,GI50,[41],0.321 µM
same,TGI,[41],> 100 µM
same,GI50,[42],0.518 µM
same,TGI,[42],> 100 µM
same,GI50,[43],0.295 µM
same,TGI,[43],> 100 µM
same,GI50,[44],0.442 µM
same,TGI,[44],> 100 µM
same,GI50,[45],0.349 µM
same,TGI,[45],> 63.5 µM
same,GI50,[46],0.598 µM
same,TGI,[46],> 100 µM
same,GI50,[47],0.636 µM
same,TGI,[47],> 23.6 µM
same,GI50,[48],0.554 µM
same,TGI,[48],> 55 µM
same,GI50,[49],0.379 µM
same,TGI,[49],> 42.7 µM
same,GI50,[50],0.342 µM
same,TGI,[50],18.6 µM
same,GI50,[51],0.383 µM
same,TGI,[51],> 100 µM
same,GI50,[52],0.423 µM
same,TGI,[52],2.59 µM
same,GI50,[53],0.608 µM
same,TGI,[53],> 100 µM
same,GI50,[54],0.333 µM
same,TGI,[54],> 100 µM
same,GI50,[55],0.301 µM
same,TGI,[55],1.08 µM
same,GI50,[56],0.326 µM
same,TGI,[56],18.6 µM
same,GI50,[57],0.452 µM
same,TGI,[57],> 100 µM
O=C(Nc1cccnc1)c1cccs1,GI50,[1],1.4 µM
same,TGI,[1],> 100 µM
same,GI50,[2],> 100 µM
same,TGI,[2],> 100 µM
same,GI50,[3],7.36 µM
same,TGI,[3],> 100 µM
same,GI50,[4],2.39 µM
same,TGI,[4],> 100 µM
same,GI50,[5],4.6 µM
same,TGI,[5],> 100 µM
same,GI50,[6],> 100 µM
same,TGI,[6],> 100 µM
same,GI50,[7],0.506 µM
same,TGI,[7],> 100 µM
same,GI50,[8],5.57 µM
same,TGI,[8],> 100 µM
same,GI50,[9],45.4 µM
same,TGI,[9],> 100 µM
same,GI50,[10],4.84 µM
same,TGI,[10],> 100 µM
same,GI50,[11],5.56 µM
same,TGI,[11],> 100 µM
same,GI50,[12],6.77 µM
same,TGI,[12],> 100 µM
same,GI50,[13],> 100 µM
same,TGI,[13],> 100 µM
same,GI50,[14],8.98 µM
same,TGI,[14],> 100 µM
same,GI50,[15],81.3 µM
same,TGI,[15],> 100 µM
same,GI50,[16],25.8 µM
same,TGI,[16],> 100 µM
same,GI50,[18],2.09 µM
same,TGI,[18],> 100 µM
same,GI50,[19],0.941 µM
same,TGI,[19],> 100 µM
same,GI50,[20],> 100 µM
same,TGI,[20],> 100 µM
same,GI50,[22],41 µM
same,TGI,[22],> 100 µM
same,GI50,[23],> 100 µM
same,TGI,[23],> 100 µM
same,GI50,[24],4.51 µM
same,TGI,[24],> 100 µM
same,GI50,[25],42.2 µM
same,TGI,[25],> 100 µM
same,GI50,[58],> 100 µM
same,TGI,[58],> 100 µM
same,GI50,[26],1.67 µM
same,TGI,[26],> 100 µM
same,GI50,[27],> 100 µM
same,TGI,[27],> 100 µM
same,GI50,[28],2.43 µM
same,TGI,[28],> 100 µM
same,GI50,[29],4.77 µM
same,TGI,[29],> 100 µM
same,GI50,[30],8.94 µM
same,TGI,[30],> 100 µM
same,GI50,[31],> 100 µM
same,TGI,[31],> 100 µM
same,GI50,[32],1.86 µM
same,TGI,[32],> 100 µM
same,GI50,[33],1.89 µM
same,TGI,[33],> 100 µM
same,GI50,[34],> 100 µM
same,TGI,[34],> 100 µM
same,GI50,[35],3.19 µM
same,TGI,[35],> 100 µM
same,GI50,[36],4.54 µM
same,TGI,[36],> 100 µM
same,GI50,[37],0.728 µM
same,TGI,[37],> 100 µM
same,GI50,[38],48.1 µM
same,TGI,[38],> 100 µM
same,GI50,[39],8.47 µM
same,TGI,[39],> 100 µM
same,GI50,[40],9.56 µM
same,TGI,[40],> 100 µM
same,GI50,[41],1.11 µM
same,TGI,[41],> 100 µM
same,GI50,[42],5.6 µM
same,TGI,[42],> 100 µM
same,GI50,[43],1.19 µM
same,TGI,[43],> 100 µM
same,GI50,[44],> 100 µM
same,TGI,[44],> 100 µM
same,GI50,[45],> 100 µM
same,TGI,[45],> 100 µM
same,GI50,[46],0.677 µM
same,TGI,[46],> 100 µM
same,GI50,[47],> 100 µM
same,TGI,[47],> 100 µM
same,GI50,[48],6.78 µM
same,TGI,[48],> 100 µM
same,GI50,[49],6.6 µM
same,TGI,[49],> 100 µM
same,GI50,[50],3.08 µM
same,TGI,[50],> 100 µM
same,GI50,[51],43.8 µM
same,TGI,[51],> 100 µM
same,GI50,[52],53 µM
same,TGI,[52],> 100 µM
same,GI50,[53],> 100 µM
same,TGI,[53],> 100 µM
same,GI50,[54],0.658 µM
same,TGI,[54],> 100 µM
same,GI50,[55],28.1 µM
same,TGI,[55],> 100 µM
same,GI50,[56],> 100 µM
same,TGI,[56],> 100 µM
same,GI50,[57],5.04 µM
same,TGI,[57],> 100 µM
